For test [1], the target named is rhSYK (Homo sapiens, UniProt P43405). To be noted: read-out: rhSYK activity; class symbol given.
Test [2] deals with recombinant human SYK (GST-hSYK fusion protein) (Homo sapiens, UniProt P43405). The test can be described thus: biochemical.
Source text: Homogeneous Time-Resolved Fluorescence (HTRF) Assay for the Recombinant Human SYK Enzyme:
The mark [3] stands for this setting: rhSYK Activity (IC50), recombinant human GST-SYK 5 pM, ATP 25 μM, biotinylated substrate peptide 250 nM, HTRF, 10-dose titration.
The mark [4] stands for this setting: Syk IC50, HTRF, recombinant human GST-SYK.

Regarding `Cc1cc(Nc2nccc(C(F)(F)F)n2)cc(-c2cnc(C3(O)CCC(C(=O)O)CC3)s2)c1` (single isomer, unassigned) [33(1), trans-4-hydroxy-4-[5-(3-methyl-5-{[4-(trifluoromethyl)pyrimidin-2-yl]amino}phenyl)-1,3-thiazol-2-yl]cyclohexanecarboxylic acid], the IC50 in test [1] was below 100 nM.
Still for that read-out and setting: then `Cc1cc(Nc2nccc(C(F)(F)F)n2)cc(-c2cnc(C3(O)CCC(C(=O)O)CC3)s2)c1` (single isomer, unassigned) [33(2), cis-4-hydroxy-4-[5-(3-methyl-5-{[4-(trifluoromethyl)pyrimidin-2-yl]amino}phenyl)-1,3-thiazol-2-yl]cyclohexanecarboxylic acid], with below 100 nM.
For the molecule `Cc1cc(Nc2nccc(C(F)(F)F)n2)cc(-c2cnc(C(C)(O)c3ccc(C(=O)O)cn3)s2)c1` (stereo not drawn) [Example 150, 6-{1-Hydroxy-1-[5-(3-methyl-5-{[4-(trifluoromethyl)pyrimidin-2-yl]amino}phenyl)-1,3-thiazol-2-yl]ethyl}pyridine-3-carboxylic acid], the IC50 in test [2] (setting [3]) was below 100 nM.
On the same count and under the same terms, then `Cc1cc(Nc2nccc(C)n2)cc(-c2cnc([C@@]3(O)CC[C@H](C(=O)O)C(C)(C)C3)s2)c1` [Example 152, (1S,4R)-4-Hydroxy-2,2-dimethyl-4-{5-[3-methyl-5-(4-methyl-pyrimidin-2-ylamino)-phenyl]-1,3-thiazol-2-yl}-cyclohexanecarboxylic acid], with below 100 nM; and `CCOP(=O)(OCC)[C@]1(O)CC[C@@](O)(c2ncc(-c3cc(C)cc(Nc4nccc(C(F)(F)F)n4)c3)s2)CC1` [Example 155(A), Diethyl{cis-1,4-dihydroxy-4-[5-(3-methyl-5-{[4-(trifluoromethyl)pyrimidin-2-yl]amino}phenyl)-1,3-thiazol-2-yl]cyclohexyl}phosphonate], with below 100 nM; and `Cc1cc(Nc2nccc(C(F)(F)F)n2)cc(-c2cnc(C3(O)CCC/C(=N\O)C3(C)C)s2)c1` (stereo not drawn) [Example 156, (3E)-3-(Hydroxyimino)-2,2-dimethyl-1-[5-(3-methyl-5-{[4-(trifluoromethyl)pyrimidin-2-yl]amino}phenyl)-1,3-thiazol-2-yl]cyclohexanol], with below 100 nM.
On the same count and under the same terms, then `Cc1cc(Nc2nccc(-c3cnn(CC(C)(C)O)c3)n2)cc(-c2cnc(C3(O)CCC3)s2)c1` [Example 157, 1-{5-[3-({4-[1-(2-hydroxy-2-methylpropyl)-1H-pyrazol-4-yl]pyrimidin-2-yl}amino)-5-methylphenyl]-1,3-thiazol-2-yl}cyclobutanol], with below 100 nM; and `Cc1cc(Nc2nccc(OCCO)n2)cc(-c2cnc(C(O)(CO)CO)s2)c1` [Example 158, 2-[5-(3-{[4-(2-hydroxyethoxy)pyrimidin-2-yl]amino}-5-methylphenyl)-1,3-thiazol-2-yl]propane-1,2,3-triol], with below 100 nM.
On to `Cc1cc(Nc2nccc(OCCO)n2)cc(-c2cnc(C3(O)CCC(C(=O)O)C(C)(C)C3)s2)c1` (stereo not drawn) [Example 159, 4-hydroxy-4-[5-(3-{[4-(2-hydroxyethoxy)pyrimidin-2-yl]amino}-5-methylphenyl)-1,3-thiazol-2-yl]-2,2-dimethylcyclohexanecarboxylic acid], for which, in test [2] (setting [3]), the IC50 is below 100 nM.
Still for that read-out and setting: then `Cc1cc(Nc2nccc(C(F)(F)F)n2)cc(-c2cnc(C3(N)CCNC(=O)CC3)s2)c1` (stereo not drawn) [Example 162, 5-amino-5-[5-(3-methyl-5-{[4-(trifluoromethyl)pyrimidin-2-yl]amino}phenyl)-1,3-thiazol-2-yl]azepan-2-one], with below 100 nM.
Take `Cc1cc(Nc2nccc(C(F)(F)F)n2)cc(-c2cnc(C3CCC4(CC3)OCCO4)s2)c1` [N-{3-[2-(1,4-diaxaspiro[4.5]dec-8-yl)-1,3-thiazol-5-yl]-5-methylphenyl}-4-(trifluoromethyl)pyrimidin-2-amine]: the IC50 in test [2] (setting [4]) stood at 297 nM.
The same measure, in the same setting: then `Cc1cc(Nc2nccc(C(F)(F)F)n2)cc(-c2cnc(C3(O)CCCN(CC(=O)O)CC3)s2)c1` (stereo not drawn) [{4-hydroxy-4-[5-(3-methyl-5-{[4-(trifluoromethyl)pyrimidin-2-yl]amino}phenyl)-1,3-thiazol-2-yl]azepan-1-yl)acetic acid], with 216 nM.
